Measurements from ChEMBL document CHEMBL3886334, “Fragment ligated inhibitors selective for the polo box domain of PLK1” (2015).

Target: Serine/threonine-protein kinase PLK1 (Homo sapiens, UniProt P53350)
Experiment: Fluorescent Polarization Binding Assay: The buffer composition was 50 mM Tris, 200 mM NaCl, 2.0 mM DTT, and 0.005% Tween 20 (pH 8.0). Fragment ligated inhibitors and comparison peptides to be tested in the binding assay were dissolved in dimethyl sulfoxide (DMSO) to a concentration of 10 mM, compounds were utilized in a range of concentrations from 10 nM to 600 μM. The PLK1 PBD protein (residues …

Serine/threonine-protein kinase PLK1, sequence (P53350 whole entry, the tested form may be a part): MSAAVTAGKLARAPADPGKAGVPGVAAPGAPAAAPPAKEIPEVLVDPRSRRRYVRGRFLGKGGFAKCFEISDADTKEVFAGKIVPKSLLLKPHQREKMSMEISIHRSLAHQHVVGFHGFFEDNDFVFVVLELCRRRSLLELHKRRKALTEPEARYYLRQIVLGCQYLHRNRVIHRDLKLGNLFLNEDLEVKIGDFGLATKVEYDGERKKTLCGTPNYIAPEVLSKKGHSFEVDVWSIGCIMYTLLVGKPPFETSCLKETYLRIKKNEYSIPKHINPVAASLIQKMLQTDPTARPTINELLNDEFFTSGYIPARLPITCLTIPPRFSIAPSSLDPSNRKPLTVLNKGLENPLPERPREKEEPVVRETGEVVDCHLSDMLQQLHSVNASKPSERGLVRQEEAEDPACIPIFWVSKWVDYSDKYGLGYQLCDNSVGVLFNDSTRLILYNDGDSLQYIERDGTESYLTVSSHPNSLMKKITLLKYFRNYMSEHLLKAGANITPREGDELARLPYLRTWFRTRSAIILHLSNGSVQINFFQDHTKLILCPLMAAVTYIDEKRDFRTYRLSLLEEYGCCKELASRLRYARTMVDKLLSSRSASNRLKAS

Row | SMILES | IC50
1 | CNC(=O)c1ccc2ncccc2c1 | 400 µM
2 | CNC(=O)c1cc(-c2ccccc2)c(C(F)(F)F)s1 | 500 µM
3 | CNC(=O)c1cc(OC)c2c(c1)OCCO2 | 300 µM
4 | CNC(=O)c1ccc(-c2noc(C)n2)cc1 | 320 µM
5 | CCCCc1ccc(C(=O)NC)cc1 | 8.6 µM
6 | CNC(=O)c1ccc(NC)cc1 | 31.2 µM
7 | CNC(=O)Cn1cc(-c2ccc(C)cc2)ncc1=O | 250 µM
8 | CNC(=O)c1cc(-c2cccc(OC)c2)n[nH]1 | 380 µM
9 | CNC(=O)c1ccc(SC)cc1 | 18.5 µM
10 | CNC(=O)c1cc(-c2ccccc2)n(-c2ccccc2)c1C | 600 µM
11 | CNC(=O)c1ccc(OC)c2ccccc12 | 99 µM
12 | CCCNc1ccc(C(=O)NC)cc1 | 16.5 µM
13 | CNC(=O)c1ccc(OC)cc1 | 125 µM
14 | CNC(=O)c1cccc2ccccc12 | 104 µM
15 | CNC(=O)c1cn(S(=O)(=O)c2ccccc2)c2ccccc12 | 375 µM
16 | CCCOc1ccc(C(=O)NC)cc1 | 29.5 µM
17 | CCc1ccc(C(=O)NC)cc1 | 16.5 µM
18 | CNC(=O)c1sc(C(F)(F)F)c(-c2ccccc2)c1N | > 600 µM
19 | CNC(=O)CN1C(=O)COc2ccc(C)cc21 | 350 µM
20 | CCOc1ccc(C(=O)NC)cc1 | 64.7 µM
21 | CNC(=O)CSc1ncnc2sc(C)cc12 | 475 µM
22 | CCCc1ccc(C(=O)NC)cc1 | 10.8 µM
